| SMILES | melting point |
| --- | --- |
| Cc1nnsc1C(=O)NS(C)(=O)=O | 165 °C |
| Cc1ccc(N(SN2CCOCC2)C(=O)c2snnc2C)cc1 [b183, 4-methyl-N-(4-methylphenyl)-N-morpholinothio-1,2,3-thiadiazole-5-carboxamide] | 60 °C (dec.) |

— patent publication US6348460B1 (priority 1997, dated 2002)
